PubChem BioAssay AID342 (DTP/NCI, 2004)
Values joined by “and” are separate entries in the source; they are usually repeats but may differ in a detail not shown here. Equal entries are not always repeated.

Tested on: Swiss mice, Sarcoma 180 sc, mean tumor weight T/C
Assay: NCI In Vivo Anticancer Drug Screen. Data for tumor model Sarcoma 180 (subcutaneous) in Swiss mice
Conditions: endpoint: mean tumor weight, higher = larger tumour
Procedure, shortened: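 Mice bearing transplanted tumors were treated with compound, and survival or tumor size was measured. Values are expressed as the treated-group measurement (T) divided by the vehicle-treated control measurement (C).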

[1] = dose: 125.0 mg/kg/injection, schedule: Q01DX007 (ip), vehicle: carboxymethylcellulose (CMC)
[2] = dose: 250.0 mg/kg/injection, schedule: Q01DX007 (ip), vehicle: carboxymethylcellulose (CMC)

## COC1=C(N)C(=O)c2nc(-c3nc(C(=O)O)c(C)c(-c4ccc(OC)c(OC)c4O)c3N)ccc2C1=O
dose: 0.02 mg/kg/injection, schedule: Q01DX007 (ip), vehicle: water
  T/C: 66 % of control
dose: 0.05 mg/kg/injection, schedule: Q01DX007 (ip), vehicle: water
  T/C: 70 % of control
dose: 0.05 mg/kg/injection, schedule: Q#A X014 (ip), vehicle: alkali diluted with CMC
  T/C: 61 % of control
dose: 0.09 mg/kg/injection, schedule: Q01DX007 (ip), vehicle: other
  T/C: 37 % of control
dose: 0.1 mg/kg/injection, schedule: Q01DX007 (ip), vehicle: water
  T/C: 53 % of control and 54 % of control
dose: 0.1 mg/kg/injection, schedule: Q#A X014 (ip), vehicle: alkali diluted with CMC
  T/C: 52 % of control
dose: 0.13 mg/kg/injection, schedule: Q01DX007 (ip), vehicle: other
  T/C: 83 % of control
dose: 0.2 mg/kg/injection, schedule: Q01DX007 (ip), vehicle: other
  T/C: 73 % of control
dose: 0.2 mg/kg/injection, schedule: Q01DX007 (ip), vehicle: water
  T/C: 48 % of control
dose: 0.2 mg/kg/injection, schedule: Q#A X014 (ip), vehicle: alkali diluted with CMC
  T/C: 65 % of control
dose: 0.25 mg/kg/injection, schedule: Q01DX007 (ip), vehicle: water
  T/C: 27 % of control
dose: 0.3 mg/kg/injection, schedule: Q01DX007 (ip), vehicle: other
  T/C: 54 % of control

## O=C(N[C@H](CO)[C@H](O)c1ccc([N+](=O)[O-])cc1)C(Cl)Cl
[1]
  T/C: 99 % of control
[2]
  T/C: 111 % of control and 112 % of control
dose: 375.0 mg/kg/injection, schedule: Q#A X014 (ip), vehicle: carboxymethylcellulose (CMC)
  T/C: 45 % of control
dose: 400.0 mg/kg/injection, schedule: Q01DX007 (ip), vehicle: carboxymethylcellulose (CMC)
  T/C: 76 % of control
dose: 666.66 mg/kg/injection, schedule: Q01DX007 (ip), vehicle: carboxymethylcellulose (CMC)
  T/C: 105 % of control
dose: 1000.0 mg/kg/injection, schedule: Q01DX007 (ip), vehicle: carboxymethylcellulose (CMC)
  T/C: 97 % of control

## c1ccc2nc3ccccc3c-2cc1
dose: 62.5 mg/kg/injection, schedule: Q01DX007 (ip), vehicle: saline
  T/C: 118 % of control
dose: 125.0 mg/kg/injection, schedule: Q01DX007 (ip), vehicle: saline
  T/C: 106 % of control
dose: 250.0 mg/kg/injection, schedule: Q01DX007 (ip), vehicle: saline
  T/C: 113 % of control
dose: 750.0 mg/kg/injection, schedule: Q01DX007 (ip), vehicle: saline
  T/C: 85 % of control
dose: 1000.0 mg/kg/injection, schedule: Q01DX007 (ip), vehicle: saline
  T/C: 68 % of control

## COc1ccc(-c2ccc(OC)c(OC)c2OC)c(N)c1
dose: 65.0 mg/kg/injection, schedule: Q01DX007 (ip), vehicle: methylcellulose (MC)
  T/C: 98 % of control
dose: 125.0 mg/kg/injection, schedule: Q01DX007 (ip), vehicle: methylcellulose (MC)
  T/C: 97 % of control
dose: 250.0 mg/kg/injection, schedule: Q01DX007 (ip), vehicle: methylcellulose (MC)
  T/C: 87 % of control
dose: 500.0 mg/kg/injection, schedule: Q01DX007 (ip), vehicle: methylcellulose (MC)
  T/C: 63 % of control
dose: 625.0 mg/kg/injection, schedule: Q01DX007 (ip), vehicle: methylcellulose (MC)
  T/C: 58 % of control
dose: 750.0 mg/kg/injection, schedule: Q01DX007 (ip), vehicle: methylcellulose (MC)
  T/C: 86 % of control

## CNNCc1ccc(C(=O)NC(N)=O)cc1
dose: 100.0 mg/kg/injection, schedule: Q01DX007 (ip), vehicle: saline
  T/C: 40 % of control
[1]
  T/C: 38 % of control
dose: 148.0 mg/kg/injection, schedule: Q01DX007 (ip), vehicle: saline
  T/C: 42 % of control
dose: 222.0 mg/kg/injection, schedule: Q01DX007 (ip), vehicle: saline
  T/C: 18 % of control
[2]
  T/C: 30 % of control
dose: 333.0 mg/kg/injection, schedule: Q01DX007 (ip), vehicle: saline
  T/C: 37 % of control

## CCCCN(C)N=Nc1ccc(C(N)=O)cc1
dose: 50.0 mg/kg/injection, schedule: Q01DX007 (ip), vehicle: carboxymethylcellulose (CMC)
  T/C: 67 % of control
dose: 75.0 mg/kg/injection, schedule: Q01DX007 (ip), vehicle: carboxymethylcellulose (CMC)
  T/C: 32 % of control
